Reference: patent US20200069714A1, “AMINOGLYCOSIDE POTENTIATION FOR TREATMENT OF PULMONARY BACTERIAL INFECTION” (Enbiotix, Inc., priority 2016, published 2020)
Entries after “also recorded” stand apart in the source; their conditions may differ.

Key:
[1] = tested on: PAO1 strain; test: potentiation assay in the presence of tobramycin and azithromycin; assay type: cell-based, Pseudomonas aeruginosa; conditions: 15 mM fumarate
Procedure: (§1) The following examples use an in vitro potentiation assay, termed planktonic stationary phase (PSP) time kill assay. In this assay, bacterial cultures in planktonic stationary phase are used to select for bacterial persisters. Experiments are conducted using the time-kill method (CLSI M26), to evaluate bacterial strains, varying the concentration of aminoglycoside and potentiator. Cultures of persisters are generated by growing the bacteria in lysogeny broth (LB) medium for 16 hours. After 4 hr of exposure to the aminoglycoside plus potentiator combination in M9 minimal medium, cells are enumerated on LB plates.
The potentiation effect was tested in the presence of both tobramycin and azithromycin. […] Results are for PAO1 strain.

[2] = tested on: naïve bacterial biofilm; test: 96-well plate biofilm assay; assay type: cell-based; conditions: 15 mM fumarate, naïve cultures
Procedure: (§2) The potentiation effect for tobramycin was tested in two biofilm assays: colony biofilm assay and 96-well plate biofilm assay.

[3] = tested on: Human Airway Epithelial cells infected with Pseudomonas; conditions: in combination with tobramycin
Procedure: The impact of fumarate on Human Airway Epithelial cells was tested using an LDH assay. See Moreau-Marquis S, Tobramycin and FDA-Approved Iron Chelators Eliminate Pseudomonas aeruginosa Biofilms on Cystic Fibrosis Cells, Am. J. Respir. Cell Mol. Biol. Vol. 41, 305-313 (2009). LDH levels are measured in the medium (Apical and Basolateral fluids) and inside cells. Cytotoxicity can be expressed as: [LDHAP-BL/(LDHPAP-BL+LDHcells)]×100. […] Results are normalized to PAO1 untreated for 100% cytotoxicity. Significance (*) is between strain plus tobramycin and strain plus tobramycin with potentiator.

[4] = potentiation in artificial sputum media; assay type: cell-based; conditions: 15 mM fumarate; with and without amino acids
Procedure: In the presence of artificial sputum media with and without amino acids, some tolerance is observed, but the potentiation of tobramycin with 15 mM fumarate remains an improvement of several logs (FIG. 9).

[5] = potentiation in the presence of CF patient sputum; assay type: cell-based
[6] = tested on: PAO1 laboratory strains of Pseudomonas aeruginosa; test: planktonic stationary phase (PSP) time kill potentiation assay, laboratory strain; assay type: cell-based
Procedure: as §1
Tobramycin has been measured at about 50 to 90 μg/ml of tobramycin in the lung epithelial lining after delivery of a 300 mg dose of tobramycin to cystic fibrosis patients by nebulizer. Ruddy J. et al., Sputum Tobramvcin Concentrations in Cystic Fibrosis Patients with Repeated Administration of Inhaled Tobramycin, J. of Aerosol Med. and Pulmon. Drug Del. 26(2):69-75 (2013).

[7] = tested on: P. aeruginosa mucoid and non-mucoid CF clinical isolates; test: colony biofilm assay with CF clinical isolates; assay type: cell-based; conditions: fumarate with tobramycin
Procedure: as §2

[8] = tested on: tobramycin-sensitive COPD clinical isolates; test: PSP potentiation assay with COPD clinical isolates; assay type: cell-based, Pseudomonas aeruginosa; conditions: 15 mM fumarate; early or late stage COPD isolates
[9] = tested on: naïve bacterial biofilm; test: colony biofilm assay; assay type: cell-based; conditions: 15 mM fumarate, naïve cultures
Procedure: as §2

[10] = cited from earlier work

Compound	potentiation of tobramycin in the presence of azithromycin [1]	potentiation of tobramycin in 96-well plate biofilm assay [2]	fumarate concentration with potential to decrease airway inflammation [3]	potentiation of tobramycin in artificial sputum media [4]	potentiation in the presence of CF sputum [5]	potentiation of tobramycin sensitivity in the persister assay ([6]; 15 mM fumarate, PAO1, 4 hr exposure in M9 minimal medium)	effect on P. aeruginosa in colony biofilms from CF clinical isolates [7]	potentiation of tobramycin action against COPD strains [8]	potentiation of tobramycin in colony biofilm assay [9]	mean tobramycin concentration in expectorated sputum ([10]; 10 minutes after delivery of 300 mg by nebulizer, CF patients)	tobramycin concentration in the lung epithelial fluid (induced sputum), estimated ([10]; after 300 mg delivered by nebulizer)	tobramycin concentration at which maximum bactericidal activity was observed ([6]; with 15 mM fumarate (Met1))
O=C(O)/C=C/C(=O)O [fumarate]	over 3 logs	potentiates tobramycin action; also recorded: shows potentiation of tobramycin	above 7.5 mM	several logs	3 logs	over 5 logs	eradication of P. aeruginosa	effective to potentiate tobramycin action against all COPD strains tested	potentiates tobramycin action; also recorded: shows potentiation of tobramycin			
NC[C@H]1O[C@H](O[C@H]2[C@H](O)[C@@H](O[C@H]3O[C@H](CO)[C@@H](O)[C@H](N)[C@H]3O)[C@H](N)C[C@@H]2N)[C@H](N)C[C@@H]1O [tobramycin]										1,237 μg/g of sputum	~128 µg/g	16 µg/mL
